Consider six compounds from publication doi:10.1101/2023.11.24.568596v1 (biorxiv, 2023).

Targets include CDKL1 (Homo sapiens, UniProt Q00532); GPRK5 (Homo sapiens, UniProt P34947); MST4 (Homo sapiens, UniProt Q9P289); EphA2 (Homo sapiens, UniProt P29317).
What all share (conditions): binder
The next assay has as its target T1, DRAK2 (Homo sapiens, UniProt O94768).
T1 sequence (O94768 1-372): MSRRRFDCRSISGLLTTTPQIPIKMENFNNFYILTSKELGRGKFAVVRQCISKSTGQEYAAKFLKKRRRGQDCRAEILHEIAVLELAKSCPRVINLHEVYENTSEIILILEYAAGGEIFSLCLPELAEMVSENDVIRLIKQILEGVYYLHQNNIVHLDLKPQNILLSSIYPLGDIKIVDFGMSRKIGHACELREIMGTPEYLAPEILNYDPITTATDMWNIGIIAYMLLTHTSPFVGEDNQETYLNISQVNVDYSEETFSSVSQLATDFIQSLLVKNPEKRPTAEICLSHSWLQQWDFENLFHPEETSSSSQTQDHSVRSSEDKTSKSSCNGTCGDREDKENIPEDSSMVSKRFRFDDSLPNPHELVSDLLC

The target in another assay is T2, DYRK2 (Homo sapiens, UniProt Q92630).
T2 sequence (Q92630 1-601): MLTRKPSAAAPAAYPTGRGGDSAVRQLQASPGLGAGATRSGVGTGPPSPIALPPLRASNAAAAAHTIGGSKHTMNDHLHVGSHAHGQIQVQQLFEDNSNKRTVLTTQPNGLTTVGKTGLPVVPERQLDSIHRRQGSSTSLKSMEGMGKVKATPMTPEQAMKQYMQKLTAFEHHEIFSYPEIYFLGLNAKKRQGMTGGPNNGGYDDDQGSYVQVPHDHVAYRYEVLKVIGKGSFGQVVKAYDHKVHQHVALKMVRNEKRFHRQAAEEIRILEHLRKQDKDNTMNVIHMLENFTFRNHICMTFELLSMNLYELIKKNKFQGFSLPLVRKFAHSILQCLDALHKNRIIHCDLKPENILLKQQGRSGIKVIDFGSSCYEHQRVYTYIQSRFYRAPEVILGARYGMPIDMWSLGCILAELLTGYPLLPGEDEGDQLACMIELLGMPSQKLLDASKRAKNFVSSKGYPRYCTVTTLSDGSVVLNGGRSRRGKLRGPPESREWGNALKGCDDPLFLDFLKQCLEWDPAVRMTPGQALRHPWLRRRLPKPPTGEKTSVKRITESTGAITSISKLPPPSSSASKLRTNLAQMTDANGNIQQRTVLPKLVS

Another assay has as its target T3, EphB3 (Homo sapiens, UniProt P54753).
T3 sequence (P54753 1-998): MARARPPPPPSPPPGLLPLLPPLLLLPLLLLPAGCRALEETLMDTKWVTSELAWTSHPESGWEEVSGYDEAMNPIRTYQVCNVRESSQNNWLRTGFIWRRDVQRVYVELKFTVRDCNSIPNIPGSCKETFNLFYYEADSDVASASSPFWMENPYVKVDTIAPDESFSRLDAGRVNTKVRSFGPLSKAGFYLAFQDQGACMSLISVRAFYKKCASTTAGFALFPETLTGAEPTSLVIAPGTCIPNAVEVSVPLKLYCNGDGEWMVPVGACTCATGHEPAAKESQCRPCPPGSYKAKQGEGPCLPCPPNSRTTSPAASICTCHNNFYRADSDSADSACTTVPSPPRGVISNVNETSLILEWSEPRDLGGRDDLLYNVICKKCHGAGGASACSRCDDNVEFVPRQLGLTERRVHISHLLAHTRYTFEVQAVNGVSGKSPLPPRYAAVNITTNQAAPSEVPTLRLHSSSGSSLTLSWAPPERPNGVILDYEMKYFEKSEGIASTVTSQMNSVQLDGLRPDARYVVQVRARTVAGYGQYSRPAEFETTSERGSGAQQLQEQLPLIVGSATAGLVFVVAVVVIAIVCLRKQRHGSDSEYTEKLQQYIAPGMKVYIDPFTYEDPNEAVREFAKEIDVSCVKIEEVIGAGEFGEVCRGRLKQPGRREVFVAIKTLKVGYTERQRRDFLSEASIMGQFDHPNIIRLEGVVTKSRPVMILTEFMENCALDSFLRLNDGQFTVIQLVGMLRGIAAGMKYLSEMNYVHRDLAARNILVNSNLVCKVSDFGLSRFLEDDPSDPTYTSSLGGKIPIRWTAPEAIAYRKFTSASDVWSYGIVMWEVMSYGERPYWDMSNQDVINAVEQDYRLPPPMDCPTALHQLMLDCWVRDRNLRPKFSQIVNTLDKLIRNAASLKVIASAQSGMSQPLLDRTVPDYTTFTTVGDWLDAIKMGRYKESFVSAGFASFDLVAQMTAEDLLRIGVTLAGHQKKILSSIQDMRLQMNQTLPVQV

In a further assay the target is T4, MYT1 (Homo sapiens, UniProt Q99640).
T4 sequence (Q99640 1-499): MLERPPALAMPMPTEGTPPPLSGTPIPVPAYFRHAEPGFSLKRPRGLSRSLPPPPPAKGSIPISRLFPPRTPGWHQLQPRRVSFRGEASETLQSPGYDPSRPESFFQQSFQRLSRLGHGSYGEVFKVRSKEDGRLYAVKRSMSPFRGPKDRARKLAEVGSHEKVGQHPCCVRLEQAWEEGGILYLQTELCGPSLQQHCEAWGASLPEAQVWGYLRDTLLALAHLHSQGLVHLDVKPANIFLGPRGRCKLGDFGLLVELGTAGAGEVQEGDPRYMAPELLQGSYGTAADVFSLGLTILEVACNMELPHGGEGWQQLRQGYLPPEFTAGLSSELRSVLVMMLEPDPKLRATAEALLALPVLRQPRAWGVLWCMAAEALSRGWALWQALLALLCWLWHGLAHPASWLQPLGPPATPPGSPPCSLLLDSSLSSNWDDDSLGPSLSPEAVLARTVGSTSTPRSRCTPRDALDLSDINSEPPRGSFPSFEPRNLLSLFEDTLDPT

MST4, sequence (Q9P289 whole entry): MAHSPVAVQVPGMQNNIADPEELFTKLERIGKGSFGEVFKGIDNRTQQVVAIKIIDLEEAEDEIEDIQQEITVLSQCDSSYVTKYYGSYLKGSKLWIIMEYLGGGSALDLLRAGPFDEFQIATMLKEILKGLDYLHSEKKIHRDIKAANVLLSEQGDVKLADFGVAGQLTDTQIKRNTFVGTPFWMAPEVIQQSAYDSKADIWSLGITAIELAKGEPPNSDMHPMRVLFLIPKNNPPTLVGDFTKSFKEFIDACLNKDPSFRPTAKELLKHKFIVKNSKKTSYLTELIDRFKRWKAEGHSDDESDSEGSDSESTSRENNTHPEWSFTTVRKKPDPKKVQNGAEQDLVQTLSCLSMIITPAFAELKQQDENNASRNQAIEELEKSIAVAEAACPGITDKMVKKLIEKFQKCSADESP
EphA2, sequence (P29317 whole entry): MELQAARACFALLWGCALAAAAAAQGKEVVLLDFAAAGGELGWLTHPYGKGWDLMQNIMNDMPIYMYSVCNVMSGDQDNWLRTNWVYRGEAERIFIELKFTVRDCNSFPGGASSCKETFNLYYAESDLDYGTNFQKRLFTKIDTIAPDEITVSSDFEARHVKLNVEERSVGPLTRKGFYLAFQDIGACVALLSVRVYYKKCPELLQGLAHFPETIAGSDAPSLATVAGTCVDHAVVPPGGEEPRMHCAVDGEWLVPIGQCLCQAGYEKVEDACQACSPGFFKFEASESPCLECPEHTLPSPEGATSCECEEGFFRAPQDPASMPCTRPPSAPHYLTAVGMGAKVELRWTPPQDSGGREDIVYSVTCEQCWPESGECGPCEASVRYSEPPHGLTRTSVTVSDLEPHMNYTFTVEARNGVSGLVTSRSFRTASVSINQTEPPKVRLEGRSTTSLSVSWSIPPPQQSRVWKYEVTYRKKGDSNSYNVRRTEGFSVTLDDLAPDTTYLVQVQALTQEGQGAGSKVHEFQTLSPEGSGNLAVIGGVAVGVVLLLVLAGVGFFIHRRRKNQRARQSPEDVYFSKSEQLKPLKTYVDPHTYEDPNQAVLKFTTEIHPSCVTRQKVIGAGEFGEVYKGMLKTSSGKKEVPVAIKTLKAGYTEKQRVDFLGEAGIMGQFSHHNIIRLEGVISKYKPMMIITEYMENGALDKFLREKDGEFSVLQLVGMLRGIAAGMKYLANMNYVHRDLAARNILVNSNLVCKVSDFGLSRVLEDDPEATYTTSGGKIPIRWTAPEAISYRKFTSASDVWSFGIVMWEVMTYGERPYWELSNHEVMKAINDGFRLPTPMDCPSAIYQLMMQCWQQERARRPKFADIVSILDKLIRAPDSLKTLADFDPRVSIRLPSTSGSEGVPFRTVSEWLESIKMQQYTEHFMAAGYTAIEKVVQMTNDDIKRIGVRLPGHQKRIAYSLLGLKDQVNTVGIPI
CDKL1, sequence (Q00532 whole entry): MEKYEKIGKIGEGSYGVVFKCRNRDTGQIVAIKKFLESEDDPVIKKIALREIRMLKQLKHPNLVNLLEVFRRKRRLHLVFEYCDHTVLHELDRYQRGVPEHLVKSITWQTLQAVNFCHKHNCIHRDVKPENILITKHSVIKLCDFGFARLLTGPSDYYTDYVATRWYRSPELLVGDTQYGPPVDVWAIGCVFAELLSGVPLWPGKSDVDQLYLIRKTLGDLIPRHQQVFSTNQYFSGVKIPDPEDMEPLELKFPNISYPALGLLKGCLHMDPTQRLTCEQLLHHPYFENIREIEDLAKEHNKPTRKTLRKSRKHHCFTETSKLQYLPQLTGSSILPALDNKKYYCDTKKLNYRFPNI
GPRK5, sequence (P34947 whole entry): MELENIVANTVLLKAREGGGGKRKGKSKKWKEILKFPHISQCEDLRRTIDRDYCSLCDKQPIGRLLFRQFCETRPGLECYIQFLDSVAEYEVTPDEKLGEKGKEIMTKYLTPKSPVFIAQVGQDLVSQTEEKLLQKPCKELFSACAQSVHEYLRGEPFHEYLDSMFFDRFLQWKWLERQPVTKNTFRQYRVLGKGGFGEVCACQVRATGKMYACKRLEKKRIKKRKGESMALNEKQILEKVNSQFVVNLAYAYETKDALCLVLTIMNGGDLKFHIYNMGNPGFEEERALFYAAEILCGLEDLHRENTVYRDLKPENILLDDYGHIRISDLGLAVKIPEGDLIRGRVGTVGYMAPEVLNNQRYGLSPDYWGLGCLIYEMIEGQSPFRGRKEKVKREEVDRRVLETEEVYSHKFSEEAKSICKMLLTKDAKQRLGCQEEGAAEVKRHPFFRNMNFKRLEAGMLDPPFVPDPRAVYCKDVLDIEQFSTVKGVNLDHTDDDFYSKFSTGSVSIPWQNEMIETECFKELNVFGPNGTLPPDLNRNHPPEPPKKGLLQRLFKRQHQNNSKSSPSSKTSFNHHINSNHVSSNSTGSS

For `Cc1cccc(-c2ccc(-c3cc4cnc(NCCCc5ccc(N)cc5)nc4n(CCCCN)c3=O)c(Cl)c2)n1` [compound 25, 8-(4-Aminobutyl)-2-((3-(4-aminophenyl)propyl)amino)-6-(2-chloro-4-(6-methylpyridin-2-yl)phenyl)pyrido[2,3-d]pyrimidin-7(8H)-one], the “ΔTm 25” value is 2.1 °C on CDKL1; 7.5 °C at DRAK2; -0.6 °C on DYRK2; 2.8 °C on EphB3; 0.6 °C on GPRK5; -2.3 °C on MYT1. Moreover, the “ΔTm 25” value was 9.6 °C on MST4 and 3.3 °C at EphA2.
On to `CNc1ncc2cc(-c3ccc(-c4cccc(C)n4)cc3Cl)c(=O)n(C[C@H]3CC[C@H](N)CC3)c2n1` [compound 23, 23], for which the “ΔTm 23” value is 0.1 °C at CDKL1; 1.7 °C at DRAK2; -0.2 °C at DYRK2; 3.6 °C on EphB3; 0.3 °C at GPRK5; -0.9 °C on MYT1. For the same compound, the figures for the “ΔTm 23” value at MST4 and on EphA2 were 8.2 °C and 3.2 °C, respectively.
For `CNc1ncc2cc(-c3ccc(-c4cccc(C)n4)cc3Cl)c(=O)n(CCCCN)c2n1` [compound 20, MRLW5], the “ΔTm MRLW5 (20)” value at CDKL1 is -0.1 °C; at DRAK2 it was 0.7 °C; on DYRK2, -0.1 °C; on EphB3, 2.5 °C; on GPRK5 it was 0.5 °C; on MYT1, -1.0 °C. Besides, the “ΔTm MRLW5 (20)” value at MST4 is 11.4 °C; on EphA2, 3.5 °C.
With `CNc1ncc2cc(-c3ccc(-c4cccc(C)n4)cc3Cl)c(=O)n(CCC3CCNCC3)c2n1` [compound 22, 6-(2-Chloro-4-(6-methylpyridin-2-yl)phenyl)-2-(methylamino)-8-(2-(piperidin-4-yl)ethyl)pyrido[2,3-d]pyrimidin-7(8H)-one], the “ΔTm 22” value on CDKL1 is 0.4 °C; on DRAK2 it was 2.7 °C; at DYRK2, -0.4 °C; at EphB3, 2.6 °C; on GPRK5 it was -1.4 °C; at MYT1 it was -4.0 °C. The entries for the “ΔTm 22” value on MST4 and on EphA2 were 7.8 °C and 2.3 °C, respectively.
In the case of `Cc1cccc(-c2ccc(-c3cc4cnc(NC(CO)CO)nc4n(CCCCN)c3=O)c(Cl)c2)n1` [compound 24, 8-(4-Aminobutyl)-6-(2-chloro-4-(6-methylpyridin-2-yl)phenyl)-2-((1,3-dihydroxypropan-2-yl)amino)pyrido[2,3-d]pyrimidin-7(8H)-one], the “ΔTm MR24 (24)” value at CDKL1 is 0.9 °C; on DRAK2 it was 2.9 °C; on DYRK2 it was -0.3 °C; on EphB3 it was 0.2 °C; on GPRK5 it was -1.0 °C; at MYT1, -2.0 °C. For the same compound, the “ΔTm MR24 (24)” value at MST4 is 9.1 °C; on EphA2, 0.6 °C.
Regarding `Cc1cccc(-c2ccc(-c3cc4cnc(NCCCN5CCOCC5)nc4n(CCCCN)c3=O)c(Cl)c2)n1` [compound 26, MR26], the “ΔTm MR26 (26)” value at CDKL1 was 0.5 °C; on DRAK2, 5.1 °C; on DYRK2, -0.2 °C; at EphB3 it was 2.4 °C; at GPRK5 it was -0.5 °C; at MYT1, -1.1 °C. Moreover, the entries for the “ΔTm MR26 (26)” value on MST4 and at EphA2 were 11.2 °C and 4.2 °C, respectively.
